Assay results taken from US7897401B2, “Control of apoptosis by controlling the propensity of ceramide channel formation” (University of Maryland, College Park, priority 2005, dated 2011).

Legend:
Assay type in all cases: biochemical
[1] = tested on: ceramide channel in planar phospholipid membrane; test: Electrophysiological recordings on planar phospholipid membranes; settings: 0.15 μM protein added while stirring, voltage clamp, FIG. 16
Description: Planar phospholipid membranes were produced by the monolayer method (Montal, M. et al. (1972) “FORMATION OF BIMOLECULAR MEMBRANES FROM LIPID MONOLAYERs AND A STUDY OF THEIR ELECTRICAL PROPERTIES,” Proc. Natl. Acad. Sci. USA 69:3561-3566) as modified by Colombini, M. (1987) (“CHARACTERIZATION OF CHANNELS ISOLATED FROM PLANT MITOCHONDRIA,” Methods Enzymol. 148:465-475), across a 100-μm-diameter hole in a Saran partition. Monolayers were produced using a solution of 0.5% w/v asolectin, 0.5% w/v DiPhyPC, 0.1% w/v cholesterol in hexane. This technique produces solvent-free phospholipid membranes whose lipid composition (focusing on the polar head-groups) is similar to that found in the mitochondrial outer membrane. It differs from the natural membrane in lacking proteins.
The aqueous solutions contained 1 mM MgCl2, and 5 mM Pipes pH 6.8 with KCl varying from 0.10 M to 1.0 M. The KCl concentration on one side of the membrane, referred to as the “trans” side, was always 0.10 M, whereas the other side (the “cis” side) was adjusted as needed. The transmembrane voltage was electronically clamped and the current through the membrane was recorded. The voltage values indicated are the voltage differences across the membrane cis side minus trans side.
C2-ceramide was stirred into the aqueous solution on each side of the membrane from a solution in DMSO, generally 0.5 mg/ml. Single or multiple additions, typically […] each, yielding a final concentration of 2 μg/ml, were made to achieve a desired level of conductance. Sphingosine additions of 5 μl were made from a solution in DMSO (4 mg/mL) yielding a final concentration of 4 μg/mL.
The observation that anti-apoptotic Bcl-2 family proteins inhibit ceramide channel formation in isolated yeast and rat liver mitochondria correlates with previous reports showing inhibition of ceramide-induced apoptosis in whole cells by these proteins. Thus the results directly tie ceramide-induced mitochondrial-mediated apoptosis with the Bcl-2 family of proteins known to regulate these events. To address whether the antiapoptotic proteins act directly on ceramide channels or work by an indirect action, their affects on ceramide channels in solvent-free planar phospholipid membranes was tested. This is a defined system free of other proteins. When C16-ceramide is added to the aqueous solution bathing one side of a planar phospholipid membrane, it results in discontinuous increases in conductance under voltage-clamp conditions, the defining characteristic of channel formation in membranes. These conductance increments are the enlargement of one ceramide channel rather than the formation of multiple ceramide channels in parallel (Siskind, L. J. et al. (2003) “ENLARGEMENT AND CONTRACTURE OF C2-CERAMIDE CHANNELS,” Biophys. J. 85:1560-1575). […]

[2] = tested on: ceramide channels in the MOM of rat liver mitochondria; test: Complex IV accessibility assay (cytochrome c oxidation), isolated rat liver mitochondria
Description: The amount of ceramide that needs to be added to mitochondria to achieve permeabilization of the MOM to proteins is high compared to physiological levels. However, it is not the absolute ceramide concentration in solution that is important, but rather the concentration of ceramide in the membrane. In addition, only a small percentage of the ceramide added to the solution actually inserts into the membrane. This issue was directly addressed by using radiolabeled ceramide and simultaneously measuring how much ceramide inserts into rat liver mitochondria and how much permeabilization is achieved in the MOM by measuring the accessibility of exogenously added cytochrome c. […] Levels measured in mitochondria in the early stages of apoptosis are 4 pmoles per nmole. Thus, the results are well within the physiological range. Note that after correcting for the membrane partitioning, long and short-chain ceramide have equal potency as expected from the model of the ceramide channel.
(§1) The ability of the naturally-occurring C16-ceramide to form channels in the mitochondrial outer membranes of isolated yeast mitochondria was assessed via the complex IV accessibility assay. This assay measures the bidirectional flux of cytochrome c across the mitochondrial outer membrane (MOM) by monitoring its oxidation by complex IV of the mitochondrial inner membrane electron transport chain. The initial rate of cytochrome c oxidation when expressed as a percent of the rate measured in mitochondria with damaged outer membranes is a good measure of the permeability of the MOM to proapoptotic proteins. This method has an advantage over simply looking for the release of cytochrome c because both channel prevention and reversal by a potential inhibitor can be evaluated.
Thus, mitochondria are isolated from wild type yeast and yeast strains expressing either human Bcl-2 or Bcl-xL according to previously published methods (Lee, A. et al. (1998) “THE ROLE OF YEAST VDAC GENES ON THE PERMEABILITY OF THE MITOCHONDRIAL OUTER MEMBRANE,” J. Membr. Biol. 161:173-181). Isolated yeast mitochondria are incubated with the naturally occurring C16-ceramide and its ability to form channels is evaluated according to the complex IV accessibility assay (Siskind, L. J. et al. (2002) “CERAMIDE CHANNELS INCREASE THE PERMEABILITY OF THE MITOCHONDRIAL OUTER MEMBRANE To SMALL PROTEINS,” J. Biol. Chem. 277:26796-26803). This assay measures the CN-sensitive oxidation of exogenously-added reduced cytochrome c by cytochrome c oxidase of the inner membrane. […] Mitochondria are incubated with test agents (e.g., C16-ceramide) for a predetermined period of time (e.g., 5-20 minutes), reduced cytochrome c is added and the absorbance is monitored at 550 nm. […]

[3] = tested on: C16-ceramide channels in the MOM of yeast mitochondria; test: Complex IV accessibility assay, isolated yeast mitochondria
Method: as §1
Thus, mitochondria are isolated from wild type yeast and yeast strains expressing either human Bcl-2 or Bcl-xL according to previously published methods (Lee, A. et al. (1998) “THE ROLE OF YEAST VDAC GENES ON THE PERMEABILITY OF THE MITOCHONDRIAL OUTER MEMBRANE,” J. Membr. Biol. 161:173-181). Isolated yeast mitochondria are incubated with the naturally occurring C16-ceramide and its ability to form channels is evaluated according to the complex IV accessibility assay (Siskind, L. J. et al. (2002) “CERAMIDE CHANNELS INCREASE THE PERMEABILITY OF THE MITOCHONDRIAL OUTER MEMBRANE To SMALL PROTEINS,” J. Biol. Chem. 277:26796-26803). This assay measures the CN-sensitive oxidation of exogenously-added reduced cytochrome c by cytochrome c oxidase of the inner membrane. It measures the permeability of the mitochondrial outer membrane (MOM) to cytochrome c. […] Mitochondria are incubated with test agents (e.g., C16-ceramide) for a predetermined period of time (e.g., 5-20 minutes), reduced cytochrome c is added and the absorbance is monitored at 550 nm. […]
The complex IV accessibility measures of the permeability of the MOM. The initial rate is expressed as a percentage of the rate of cytochrome c oxidation in mitochondria whose outer membranes are ruptured by hypotonic shock. […]

mammalian MOM = test: Ceramide-induced permeabilization of mammalian MOM; settings: C16-ceramide; read-out: IC50 for inhibition of C16-ceramide-induced permeabilization of mammalian MOM
yeast mitochondria = test: Ceramide-induced permeabilization in yeast mitochondria
[4] = tested on: ceramide channels in the mitochondrial outer membrane (MOM); test: Adenylate kinase release assay in isolated rat liver mitochondria; settings: for effect of preincubation on C16-ceramide permeabilization of the MOM and adenylate kinase release: 5 min preincubation, C16-ceramide 40 μg/mL, 10 min, low concentration potentiates, higher inhibits
Method: The preparation yielded a mitochondrial suspension containing 10 mg of protein per mL. […] The mitochondria were then pelleted at 14,000 g for 5 min at 4° C. and the supernatant was kept on ice until assayed. […] The enzymes were added to the rest of the reaction mixture 1 min before the addition of the mitochondrial supernatant to allow a trace of ATP to be consumed. The activity of adenylate kinase was detected as an increase in absorbance at 340 nm. Since the activity of the kinase decays with time, even on ice, experiments were performed in sets and the activity of the first supernatant was assayed again at the end of the set. The values were fitted to a first order decay and all values within the set were corrected for the decay of the activity, based on the time delay before assay.
To determine the effect of sphingosine pretreatment on ceramide permeabilization of the mitochondrial outer membrane, mitochondria were incubated at room temperature in the presence of varying concentrations of sphingosine for […] before addition of ceramide and incubation for 10 min. Untreated mitochondria and mitochondria hypotonically lysed (20 μl into 1.2 ml water) served as negative and positive controls, respectively.
Experiments with C16-ceramide were performed in a similar way except as follows. The mitochondria were suspended in the above medium except that the 1 mM Tris buffer was replaced by 5 mM HEPES. To 1.0 mL of this medium at room temperature (RT) was added 17 μL of mitochondrial suspension that had been kept on ice at a concentration of 4 mg/mL. The final mitochondrial protein concentration during the experiment was 80 μg/mL. In the case of shocked mitochondria, the 1.0 mL of medium was replaced by water. Sphingosine was added, where appropriate, from a 0.25 mg/mL solution in DMSO. Typically 4-7 incubations were run in parallel. All samples were incubated for 5 min at RT. Then some samples received 0.4 mL of fatty acid depleted bovine serum albumin (BSA), 25 mg/mL, followed immediately by 20 μL of C16-ceramide dissolved in isopropanol at 2 mg/mL. After a 10-min incubation at RT, 10 μL of 4 mM PMSF was added followed by centrifugation. In these experiments 0.3 mL of mitochondrial supernatant was added to the adenylate kinase reaction mixture.

[5] = Ability of sphingolipids to form channels in membranes
Description: The present invention establishes that sphingosine is capable of directly disassembling ceramide channels, thus proving the existence of this novel anti-apoptotic regulatory step. The ability of sphingosine, sphingosine-1-phosphate ([…]) and ceramide-1-phosphate the ability to form channels was investigated.

[6] = tested on: ceramide channels in mitochondrial outer membranes; test: Dihydroceramide inhibition of ceramide channel formation in mitochondrial outer membranes (rate of oxidation of exogenously-added cytochrome c)
Description: The permeability was monitored by recording the rate of oxidation of exogenously-added cytochrome c. Ceramide (C2) was present at all data points except for the highest amount of dihydroceramide (DHC2) added (29 nmol).

## FL Bcl-xL: purified recombinant full-length anti-apoptotic protein Bcl-xL
[1]
  effect on conductance of a stable C16-ceramide channel: dramatic decrease in the ceramide conductance to baseline
[2]; C16-ceramide before protein (reversal), biphasic, FIG. 15A
  level at which disassembly of preformed C16-ceramide channels was observed: ≤ 5 µg
[2]; protein 10 min before 20 μM C16-ceramide 10 min, FIG. 15A
  level giving almost complete prevention of C16-ceramide channel formation: 1.5 µg
[3]; 20 μg protein, 20 μM C16-ceramide, 10 min each, FIG. 13D-F
  effect on C16-ceramide channels (prevention and reversal) in MOM of isolated yeast mitochondria: prevention and reversal of the C16-ceramide channels was observed

## CC(C)NCC(O)COc1cccc2ccccc12 (centres unmarked) [propranolol]
Mammalian MOM
  IC50: 410 µM
Yeast mitochondria
  effect on ceramide C2-induced permeabilization: inhibited
  effect on ceramide C16-induced permeabilization: somewhat potentiated

## CCCCCCCCCCCCC/C=C/[C@H](O)[C@@H](N)CO [L-threo sphingosine]
[4]; 2.4 μg/mL for 5 min, then fatty acid depleted BSA, no ceramide added
  permeabilization of the MOM to adenylate kinase after removal of excess compound with BSA: no penneabilization of the MOM to adenylate kinase was observed
[4]
  effect of preincubation on C16-ceramide permeabilization of the MOM and adenylate kinase release: same biphasic effect
[4]; listed as L-sphingosine
  effect of preincubation on C16-ceramide permeabilization of the MOM and adenylate kinase release: same results as D-sphingosine

## CCCCCCCCCCCCC/C=C/[C@@H](O)[C@@H](N)COP(=O)(O)O [S-1-P, sphingosine-1-phosphate]
[5]
  ability to form channels: destabilized membranes

## CCCCCCCCCCCCC/C=C/[C@@H](O)[C@H](CO)NC(=O)CCCCCCCCCCCCCCC [C16-ceramide]
[3]; 10 min incubation, FIG. 13A
  channel formation in the MOM of isolated wild-type yeast mitochondria: forms channels

## Bcl-2: full-length human Bcl-2 expressed in yeast cells
[3]; full-length human Bcl-2 expressed in yeast vs empty vector control
  sensitivity to C16-ceramide channel formation of mitochondria from yeast expressing the protein: resistant to C16-ceramide channel formation

## CCCCOc1cc(C(=O)NCCN(CC)CC)c2ccccc2n1 [dibucaine]
Mammalian MOM
  IC50: 230 µM
Yeast mitochondria
  effect on ceramide C2-induced permeabilization: inhibited
  effect on ceramide C16-induced permeabilization: somewhat potentiated

## ceramide-1-phosphate [C-1-P]
[5]
  ability to form channels: without reproducible effect

## dihydroceramide
[2]; inserts into mitochondrial membranes to the same degree as ceramide
  permeabilization of the MOM to cytochrome c: lack of effect
[6]
  effect on already formed ceramide channels: does not induce channel disassembly
[6]; found in liposomes and isolated mitochondria, FIG. 11 with C2-ceramide
  level that inhibits ceramide channel formation, relative to the ceramide level: 10%
